Assay results as given in patent publication US20210038607A1, “OXADIAZOLYLTHIOPHENE DERIVATIVES USEFUL AS HISTONE DEACETYLASE INHIBITORS” (Karus Therapeutics Limited, priority 2018, published 2021).

Key:
Recombinant human HDAC6 = biological target: T1, Recombinant human HDAC6 (Homo sapiens, UniProt Q9UBN7); experiment: HDAC6 biochemical assay, AMC-labeled peptide substrate; conditions: HDAC6; read-out: HDAC Isoform IC50 (nM) 6
T1 construct: full length, MW=159 kDa; GST (N); host or cells: Sf9 insect cells (baculovirus)
T1 sequence (Q9UBN7 1-1215): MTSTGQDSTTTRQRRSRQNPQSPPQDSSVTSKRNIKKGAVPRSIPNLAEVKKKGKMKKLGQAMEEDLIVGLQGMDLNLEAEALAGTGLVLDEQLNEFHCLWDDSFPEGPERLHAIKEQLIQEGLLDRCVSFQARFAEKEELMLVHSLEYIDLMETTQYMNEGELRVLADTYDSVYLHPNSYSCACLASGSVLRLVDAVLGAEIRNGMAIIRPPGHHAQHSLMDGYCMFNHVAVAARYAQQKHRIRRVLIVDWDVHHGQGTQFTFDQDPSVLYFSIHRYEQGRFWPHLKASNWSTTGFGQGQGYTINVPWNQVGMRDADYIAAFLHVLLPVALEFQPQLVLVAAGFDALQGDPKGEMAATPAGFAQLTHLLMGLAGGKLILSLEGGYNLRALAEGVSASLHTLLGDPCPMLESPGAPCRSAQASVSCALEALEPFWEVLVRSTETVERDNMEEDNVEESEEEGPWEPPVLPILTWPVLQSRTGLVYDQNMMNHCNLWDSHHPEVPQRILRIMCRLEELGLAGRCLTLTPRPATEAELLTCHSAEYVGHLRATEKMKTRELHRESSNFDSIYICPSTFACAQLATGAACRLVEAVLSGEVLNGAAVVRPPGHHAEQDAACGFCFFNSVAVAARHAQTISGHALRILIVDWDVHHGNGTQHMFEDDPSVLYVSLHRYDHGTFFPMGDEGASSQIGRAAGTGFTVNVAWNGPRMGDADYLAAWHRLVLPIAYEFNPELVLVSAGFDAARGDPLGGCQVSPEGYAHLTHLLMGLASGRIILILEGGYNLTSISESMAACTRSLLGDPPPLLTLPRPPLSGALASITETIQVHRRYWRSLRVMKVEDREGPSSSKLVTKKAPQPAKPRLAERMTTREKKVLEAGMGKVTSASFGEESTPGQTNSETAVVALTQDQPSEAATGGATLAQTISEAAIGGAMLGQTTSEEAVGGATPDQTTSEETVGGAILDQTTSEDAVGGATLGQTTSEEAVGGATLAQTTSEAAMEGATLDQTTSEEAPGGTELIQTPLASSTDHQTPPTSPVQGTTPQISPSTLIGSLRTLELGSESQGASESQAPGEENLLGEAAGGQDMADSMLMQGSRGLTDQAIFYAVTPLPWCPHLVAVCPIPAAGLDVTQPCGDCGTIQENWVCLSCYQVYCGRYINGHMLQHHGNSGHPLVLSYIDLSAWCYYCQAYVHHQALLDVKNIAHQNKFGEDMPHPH
Procedure, shortened: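 Two-step fluorogenic read-out: enzyme deacetylates 50 μM RHKK(Ac)AMC for 1 h at 30° C in pH 8.0 Tris buffer with BSA and 1% DMSO, then developer cleavage gives signal at Ex 360/Em 460. Enzyme: 0.3 ng/ul recombinant full-length human HDAC6, GST-tagged, Sf9-expressed.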

Human HDAC1 = biological target: T2, Human HDAC1 (Homo sapiens, UniProt Q13547); experiment: HDAC1 biochemical assay, AMC-labeled peptide substrate; conditions: read-out: HDAC Isoform IC50 (nM) 1
T2 construct: full length with C-terminal His-tag and C-terminal FLAG-tag; His (C); FLAG (C); host or cells: baculovirus expression system
T2 sequence (Q13547 whole entry, canonical isoform): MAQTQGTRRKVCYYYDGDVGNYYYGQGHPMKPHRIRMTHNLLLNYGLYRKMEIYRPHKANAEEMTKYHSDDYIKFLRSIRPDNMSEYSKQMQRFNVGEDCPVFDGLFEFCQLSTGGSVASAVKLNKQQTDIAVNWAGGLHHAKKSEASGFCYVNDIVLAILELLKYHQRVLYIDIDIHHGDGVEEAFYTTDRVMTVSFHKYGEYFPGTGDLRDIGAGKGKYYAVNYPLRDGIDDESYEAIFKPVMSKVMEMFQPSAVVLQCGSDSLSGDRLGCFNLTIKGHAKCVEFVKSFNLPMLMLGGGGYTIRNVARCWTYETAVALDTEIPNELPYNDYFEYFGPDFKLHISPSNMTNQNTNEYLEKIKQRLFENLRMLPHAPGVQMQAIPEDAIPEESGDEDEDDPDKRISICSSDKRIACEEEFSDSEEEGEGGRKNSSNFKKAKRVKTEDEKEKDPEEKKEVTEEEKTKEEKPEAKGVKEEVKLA
Procedure, shortened: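 Baculovirus-expressed full-length human HDAC1 with His and FLAG tags, 0.3 ng/ul, incubated 1 h at 30° C with compound and 50 μM RHKK(Ac)AMC in Tris pH 8.0 buffer with BSA and 1% DMSO. Developer then releases AMC from deacetylated substrate; fluorescence read at 360/460 nm.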

Human HDAC4 = biological target: T3, Human HDAC4 (Homo sapiens, UniProt P56524); experiment: HDAC4 biochemical assay, class IIa-specific substrate; conditions: read-out: HDAC Isoform IC50 (nM) 4
T3 construct: amino acids 627-1085 with N-terminal GST tag; GST (N); host or cells: baculovirus expression system
T3 sequence (P56524 627-1084 limits assumed): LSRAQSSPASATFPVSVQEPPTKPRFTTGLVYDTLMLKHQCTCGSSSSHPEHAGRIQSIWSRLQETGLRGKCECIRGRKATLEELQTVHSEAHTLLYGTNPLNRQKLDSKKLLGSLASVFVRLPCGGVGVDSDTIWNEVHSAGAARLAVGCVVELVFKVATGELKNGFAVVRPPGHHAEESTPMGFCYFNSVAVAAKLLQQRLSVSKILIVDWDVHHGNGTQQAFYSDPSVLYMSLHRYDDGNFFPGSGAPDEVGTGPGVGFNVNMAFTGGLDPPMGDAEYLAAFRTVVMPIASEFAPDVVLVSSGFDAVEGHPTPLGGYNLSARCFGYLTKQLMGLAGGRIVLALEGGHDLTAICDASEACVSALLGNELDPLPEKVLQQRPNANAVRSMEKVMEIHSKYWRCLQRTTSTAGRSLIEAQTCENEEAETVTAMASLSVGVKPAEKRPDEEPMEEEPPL
Procedure, shortened: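 GST-tagged human HDAC4 (aa 627-1085, baculovirus) at 0.004 ng/ul was incubated 30 min at room temperature with 50 μM class IIa-specific substrate BOC-Lys(trifluoroacetyl)-AMC in Tris-HCl pH 8.0 buffer with BSA, 1% DMSO. Developer then released AMC, read at 360/460 nm.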

Row | Compound | IC50 (Recombinant human HDAC6) | IC50 (Human HDAC1) | IC50 (Human HDAC4)
1 | COC1CN(C(=O)c2ccc(N(Cc3ccc(-c4noc(C(F)(F)F)n4)s3)c3cnccn3)nn2)C1 [Example DR, 6-(3-Methoxyazetidine-1-carbonyl)-N-(pyrazin-2-yl)-N-({5-[5-(trifluoromethyl)-1,2,4-oxadiazol-3-yl]thiophen-2-yl}methyl)pyridazin-3-amine] | ≤ 500 nM | ≤ 10000 nM | ≤ 500 nM
2 | O=C(c1cnnc(N(Cc2ccc(-c3noc(C(F)(F)F)n3)s2)c2cnccn2)c1)N1CC(C(F)(F)F)C1 [Example GJ, N-(Pyrazin-2-yl)-N-({5-[5-(trifluoromethyl)-1,2,4-oxadiazol-3-yl]thiophen-2-yl}methyl)-5-[3-(trifluoromethyl)azetidine-1-carbonyl]pyridazin-3-amine] | ≤ 500 nM | > 10000 nM | ≤ 1000 nM
3 | FC(F)(F)c1nc(-c2ccc(CN(c3cnccn3)c3cc(N4CCOCC4)cnn3)s2)no1 [Example FP, 5-(Morpholin-4-yl)-N-(pyrazin-2-yl)-N-({5-[5-(trifluoromethyl)-1,2,4-oxadiazol-3-yl]thiophen-2-yl}methyl)pyridazin-3-amine] | ≤ 500 nM | > 10000 nM | ≤ 1000 nM
4 | O=C(c1ccc(N(Cc2ccc(-c3noc(C(F)(F)F)n3)s2)c2cnccn2)nn1)N1C[C@@H]2C[C@H]1CO2 [Example FE, 6-[(1S,4S)-2-Oxa-5-azabicyclo[2.2.1]heptane-5-carbonyl]-N-(pyrazin-2-yl)-N-({5-[5-(trifluoromethyl)-1,2,4-oxadiazol-3-yl]thiophen-2-yl}methyl)pyridazin-3-amine] | ≤ 500 nM | > 10000 nM | ≤ 500 nM

Next, values leading:

Row | IC50 (Recombinant human HDAC6) | IC50 (Human HDAC1) | IC50 (Human HDAC4) | Compound
5 | ≤ 500 nM | > 10000 nM | ≤ 1000 nM | Cc1cnnc(N(Cc2ccc(-c3noc(C(F)(F)F)n3)s2)c2cnccn2)c1 [Example GN, 5-Methyl-N-(pyrazin-2-yl)-N-({5-[5-(trifluoromethyl)-1,2,4-oxadiazol-3-yl]thiophen-2-yl}methyl)pyridazin-3-amine]
6 | ≤ 500 nM | ≤ 10000 nM | ≤ 1000 nM | Cc1cnc(N(Cc2ccc(-c3noc(C(F)(F)F)n3)s2)c2cnccn2)cn1 [Example BH, 5-Methyl-N-(pyrazin-2-yl)-N-({5-[5-(trifluoromethyl)-1,2,4-oxadiazol-3-yl]thiophen-2-yl}methyl)pyrazin-2-amine]
7 | ≤ 500 nM | ≤ 10000 nM | ≤ 1000 nM | CC(=O)Nc1cnnc(N(Cc2ccc(-c3noc(C(F)(F)F)n3)s2)c2cnccn2)c1 [Example FM, N-{6-[(Pyrazin-2-yl)({5-[5-(trifluoromethyl)-1,2,4-oxadiazol-3-yl]thiophen-2-yl}methyl)amino]pyridazin-4-yl}acetamide]
